Assay results reported in patent US5942511A, “Allylthiopyridazine derivatives and process for preparing the same” (Kwon; Soon Kyoung, priority 1998, dated 1999).
Several values for one entry are separate records, joined by “and”; a condition that tells them apart may be missing. Equal entries are not always repeated.

Columns and labels:
hepatocyte necrosis = assay: Effect of inhibiting hepatic disorder induced by acetaminophen (APAP): hepatocyte necrosis; type: in vivo, male ICR mice; details: APAP model, 50 mg/kg per day oral, 3 days
Experimental: In the present invention, the inhibiting effect of the compound of formula (I) on hepatic disorder, induced by carbon tetrachloride and acetaminophene, was determined after oral administration of the novel compound according to the present invention to mouse as the experimental animal for 3 days. The degree of liver damage in respective experimental animal was determined by measuring ALT and LDH levels in blood [see, Biol. Pharm. Bull., 20, 4, 381-385, 1997; Toxicology and Applied Pharmacology, 95, 1-11, 1988], and further by removing the liver, staining (×100) the liver with hematoxylin and eosin and then observing with microscope to examine the degree of hepatocyte necrosis.
In addition, liver was removed from the test animals, stained (×100) with hematoxylin and eosin and then observed by microscope. The degree of hepatocyte necrosis was evaluated according to the following 5 grades: 0 no lesion, 1 mild lesion, 2 moderate lesion, 3 severe lesion and 4 diffused lesion.
The liver protective effect of the compound according to the present invention was examined according to the known method [see, Wang et al., Toxicology and applied Pharmacology, 136, 146-154, 1996] as specifically described below.
The compound according to the present invention was suspended in corn oil and the resulting suspension was administered in an amount of 1.0 ml/kg. Each group was composed of 3 to 10 male ICR mice (5-6 weeks) and the test compound was orally administered for 3 days in the dose of 50 mg/kg per day. After 2 hours from the last administration of the test compound, acetaminophen was orally administered in an amount of 0.5 g/kg. In this experiment, silymarin was used as the comparative compound. After 22 hours from the administration of acetaminphen, blood was taken from the individual test animal and ALT and LDH values in serum were determined. The results as obtained are described in the following Tables 4 and 5 (in which ALT and LDH values are represented by mean±SE). In addition, liver was removed from the test animals and then observed according to the same manner as Experiment 3 to evaluate the degree of hepatocyte necrosis.

radiation damage = assay: Protective effect against radiation damage: survival of mouse; type: in vivo, male ICR mouse; details: 100 mg/kg per day, 2 days
From the text: Further, the present inventors have confirmed the protective effect of allylthiopyridazine derivative according to the present invention against radiation by administering the active compound to mouse, irradiating the radiation of 8 or 9Gy and, after a certain period, measuring the survival rate of mouse. For example, the survival rate during 30 days of 8Gy radiation can be seen from FIG. 3, and the specific experimental result is described in the following Table 7. Specifically, when 8Gy radiation is used, the survival rate during 30 days in the groups which only radiation was used was merely 48%, whereas the survival rates during 30 days in the groups to which the compounds of Examples 4 and 8 are previously administered were 76% and 70%, respectively. Therefore, it can be noted that the protective effect of the compound according to the present invention against radiation is proven to be a very significant novel discovery.
Protective effect against radiation damage
In order to confirm the protective effect of the compound of the present invention against radiation damage, the following test was conducted.
Male ICR mouse was bred in a chamber to which sterile atmosphere is supplied, at inner temperature 20-23° C. and relative humidity 50% with sufficient water and feed. When the weight of mouse reached 20-25 g, the compound of the present invention was suspended in corn oil and then administered for 2 days in the dose of 100 mg/kg (1 ml/kg) per day. After 3 hours from the last administration of the test compound, 8 or 9 Gy radiation was irradiated to mouse. Specifically, mouse was introduced into a box made of acryl which limited his movement, and then radiation produced from ^60 Co radioactive material was irradiated to whole body at the irradiating rate of 115.8 cGy/min. The dimension of acryl box was 31×31 cm^2, which is the same as the irradiating area of radiation. After 7 days of irradiation of γ-ray, mouse was sacrificed to conduct the histopathologic observation. The result of examining the survival rate during 30 days of irradiation of 8 Gy radiation is shown in FIG. 3, and the result of determining the survival rate after a certain period (10, 13 or 30 days) from irradiation of 8 or 9 Gy radiation is described in the following Table 7.

Question: What does the source list for C=CCSc1ccc(OC)nn1 [Example 4, 3-methoxy-6-allylthiopyridazine]?
Answer: Degree of necrosis 0: number of animals (hepatocyte necrosis; grade 0 no lesion): 5; Degree of necrosis 1: number of animals (hepatocyte necrosis; grade 1 mild lesion): 4; Degree of necrosis 2: number of animals (hepatocyte necrosis; grade 2 moderate lesion): 1; Degree of necrosis 3: number of animals (hepatocyte necrosis; grade 3 severe lesion): 0; Degree of necrosis 4: number of animals (hepatocyte necrosis; grade 4 diffused lesion): 0; survival number (radiation damage; 10 days of 9 Gy radiation): 16/23; survival rate (radiation damage; 10 days of 9 Gy radiation): 70%; survival number (radiation damage; 13 days of 9 Gy radiation): 3/23; survival rate (radiation damage; 13 days of 9 Gy radiation): 13%; survival number (radiation damage; 30 days of 8 Gy radiation): 18/23; survival rate (radiation damage; 30 days of 8 Gy radiation, 100 mg/kg/day): 78% and 76%
